The source of these data is US10918623B2, “Methods of treating influenza” (Biotron Limited, priority 2017, dated 2021).

Type in all cases: cell-based
Assay [1] relates to PR8 4C [A30T] M2 mutant amantadine resistant influenza A virus.
Assay [2] deals with SHIV-1M2 (ion channel sequence of influenza A M2).
Another assay relates to Influenza B.

A word on the EC50: it is the concentration at which the effect is half-maximal. A lower EC50 goes with greater potency. For orientation: EC90 means the concentration needed for an effect of 90%. In assay [1], `Cn1cc(-c2cccc3cc(C(=O)NC(=N)N)ccc23)cn1` [BIT225, N-carbamimidoyl-5-(1-methyl-1H-pyrazol-4-yl)-2-naphthamide] had an EC50 of approximately 10 µM and an EC90 of 18 µM. In assay [2], the “Virus released into the culture supernatant as measured by viral p27 protein” value is recorded as “reduced virus released”. For the same compound, the Comments entry with Influenza B is “Active”.
On to `NC12CC3CC(CC(C3)C1)C2` [amantadine, reference compound], for which the “Shift in drug sensitivity caused by the A30T mutation in M2” value in assay [1] is given as “large shift in drug sensitivity”.
